pKd: −log10 of the molar value.
Biological target: cellular retinoic acid-binding protein I (CRABP I), CPG variant (Mus musculus, UniProt P62965, R132Q)
Assay: fluorescence equilibrium titration of […] FlAsH with purified protein, […] EDT

Sequence of cellular retinoic acid-binding protein I (CRABP I), CPG variant (P62965 2-137 R132Q): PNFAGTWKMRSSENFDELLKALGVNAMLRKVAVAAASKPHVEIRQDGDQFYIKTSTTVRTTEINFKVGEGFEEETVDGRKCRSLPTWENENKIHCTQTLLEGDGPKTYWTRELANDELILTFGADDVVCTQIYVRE

O=C1OC2(c3ccccc31)c1ccc(O)c([As]3SCCS3)c1Oc1c2ccc(O)c1[As]1SCCS1 [FlAsH]
pKd: 6.40

— PMC2631173 (Chemistry & biology, 2008)
